The source made the active and inactive calls. The calls are words filed in the database; no cut-off is given here.
Assays:
K562 [1] = assay: Antiproliferative activity against human K562 cells assessed as reduction in cell viability incubated for 72 hrs by MTT assay; type: functional, cell-based; conditions: K562, 72 h
MDA-MB-231 [2] = assay: Antiproliferative activity against human MDA-MB-231 cells assessed as reduction in cell viability incubated for 72 hrs by MTT assay; type: functional, cell-based; conditions: MDA-MB-231, 72 h
SMMC-7721 [3] = assay: Antiproliferative activity against human […] cells assessed as reduction in cell viability incubated for 72 hrs by MTT assay; type: functional, cell-based; conditions: SMMC-7721, 72 h
MCF7 [4] = assay: Antiproliferative activity against human MCF7 cells assessed as reduction in cell viability incubated for 72 hrs by MTT assay; type: functional, cell-based; conditions: MCF7, 72 h
K562 [5] = assay: Potency index, ratio of IC50 for oridonin to IC50 for test compound for antiproliferative activity against K562 cells; type: functional, Homo sapiens
MDA-MB-231 [6] = assay: Potency index, ratio of IC50 for oridonin to IC50 for test compound for antiproliferative activity against MDA-MB-231 cells; type: functional, Homo sapiens
SMMC-7721 [7] = assay: Potency index, ratio of IC50 for oridonin to IC50 for test compound for antiproliferative activity against SMMC-7721 cells; type: functional, Homo sapiens
MCF7 [8] = assay: Potency index, ratio of IC50 for oridonin to IC50 for test compound for antiproliferative activity against MCF7 cells; type: functional, Homo sapiens
SW480 = assay: Antiproliferative activity against human SW480 cells assessed as reduction in cell viability incubated for 72 hrs by MTT assay; type: functional, cell-based; conditions: SW480, 72 h
MGC-803 = assay: Antiproliferative activity against human MGC-803 cells assessed as reduction in cell viability incubated for 72 hrs by MTT assay; type: functional, cell-based; conditions: MGC-803, 72 h
HeLa = assay: Antiproliferative activity against human HeLa cells assessed as reduction in cell viability incubated for 72 hrs by MTT assay; type: functional, cell-based
[9] = Antiproliferative activity against human U-87 MG cells assessed as reduction in cell viability incubated for 72 hrs by MTT assay; type: functional, cell-based, U-87MG ATCC
H22 [10] = assay: Antiproliferative activity against mouse H22 cells assessed as reduction in cell viability incubated for 72 hrs by MTT assay; type: functional, cell-based; conditions: H22, 72 h
[11] = Cytotoxicity against human L02 cells assessed as reduction in cell viability incubated for 72 hrs by MTT assay; type: toxicity, cell-based
[12] = Selectivity index, ratio of IC50 for human L02 cells to IC50 for human SMMC-7721 cells; type: toxicity; conditions: L02 cells and SMMC-7721 cells, read-out: Ratio IC50
H22 [13] = assay: Antitumor activity against mouse H22 cells allografted in ICR mouse assessed as reduction in tumor volume at 20 mg/kg, iv administered once a day for 21 days after 7 days of tumor implantation measured every two days; type: functional, organism-based; conditions: time 21.0 day
H22 [14] = assay: Antitumor activity against mouse H22 cells allografted in ICR mouse assessed as reduction in tumor weight at 20 mg/kg, iv administered once a day for 21 days after 7 days of tumor implantation; type: functional; design: scale not given: the % may be the effect or the level left; conditions: time 21 day
[15] = Toxicity in ICR mouse allografted with mouse H22 cells assessed as change in body weight at 20 mg/kg, iv administered once a day for 21 days after 7 days of tumor implantation measured every two days; type: organism-based; conditions: in vivo, 504 h, time 21 day
H22 [16] = assay: Antitumor activity against mouse H22 cells allografted in ICR mouse assessed as reduction in tumor weight at 8 mg/kg, iv administered every two days for 21 days after 7 days of tumor implantation; type: functional; design: scale not given: the % may be the effect or the level left; conditions: time 21 day
[17] = Toxicity in ICR mouse allografted with mouse H22 cells assessed as reduction in body weight at 8 mg/kg, iv administered every two days for 21 days after 7 days of tumor implantation measured every two days; type: organism-based; conditions: in vivo, 504 h, time 21 day

Row | IC50 (K562 [1]) [µM] | IC50 (MDA-MB-231 [2]) [µM] | IC50 (SMMC-7721 [3]) [µM] | IC50 (MCF7 [4]) [µM] | IC50 (SW480) [µM] | IC50 (MGC-803) [µM] | IC50 (HeLa) [µM] | Structure (SMILES) | Ratio IC50 (K562 [5]) | Ratio IC50 (MDA-MB-231 [6]) | Ratio IC50 (SMMC-7721 [7]) | Ratio IC50 (MCF7 [8]) | IC50 [9] [µM] | IC50 (H22 [10]) [µM] | IC50 at 72 h [11] [µM] | selectivity ratio [12] | Activity (H22 [13]) | Activity (H22 [14]) [%] | Activity [15] | Activity (H22 [16]) [%] | Activity [17]
1 | 0.99 | 1.67 | 2.09 | 1.3 |  |  |  | C=C1C(=O)[C@@]23C(=O)C[C@@H]4C(C)(C)CCC[C@@]4(COC(C)=O)[C@@H]2CC[C@@H]1[C@H]3OC(C)=O | 4 | 6.9 | 6.2 | 8.5 |  |  |  |  |  |  |  |  | 
2 | 0.34 | 0.72 | 0.77 | 0.71 | 0.8 | 0.96 | 0.94 | C=C1C(=O)[C@]23[C@H](OC(=O)/C=C/c4ccncc4)[C@H]1CC[C@H]2[C@]12CCCC(C)(C)[C@H]1C[C@@]3(O)OC2 |  |  |  |  | 0.9 | 0.78 | 5.24 | 6.79 | Active | 52.34 | Non-Toxic |  | 
3 | 0.21 | 0.64 | 0.35 | 1.31 | 1.11 | 1.15 | 0.97 | C=C1C(=O)[C@]23[C@H](OC(=O)/C=C/c4ccncc4)[C@H]1CC[C@H]2[C@]12C=CCC(C)(C)[C@H]1[C@H](O)[C@@]3(O)OC2 |  |  |  |  | 1.16 | 0.36 | 6.23 | 17.7 | Active | 56.76 | Non-Toxic |  | 
4 |  |  |  |  |  |  |  | CC(=O)O[C@H]1C(=O)[C@@]2(C)[C@H]([C@H](OC(=O)c3ccccc3)[C@]3(O)C[C@H](OC(=O)[C@H](O)[C@@H](NC(=O)c4ccccc4)c4ccccc4)C(C)=C1C3(C)C)[C@]1(OC(C)=O)CO[C@@H]1C[C@@H]2O [PACLITAXEL] |  |  |  |  |  |  |  |  |  |  |  | 90.39 | Toxic
